Data from patent publication US20210100242A1, “FORMULATIONS FOR CONTROL AND REPELLENCY OF BITING ARTHROPODS” (BEDOUKIAN RESEARCH, INC., priority 2019, published 2021).

The molecules below were run on Adult female Aedes aegypti (assay: Membrane feeder repellency test: mosquitoes probing treated collagen membranes over blood-filled wells). Settings: Total repellent 0.30%.
Format: in vivo
Procedure: Adult female Aedes aegypti were obtained from the i2LResearch USA, Inc. colony. Two hundred fifty (250) mosquitoes were used per replicate (seven replicates). Mosquitoes were at least 6 days old and had been deprived of sucrose solution for at least 18 hours prior to testing.
An exposure container was used to present the mosquitoes with a choice of blood-filled wells that were covered with collagen membranes (3 cm in diameter). The collagen membranes were treated by pipetting 6.25 μl of the test treatment onto the appropriate membrane and spreading it evenly with the tip of the pipette.
Exposure container. A 30.5 cm×30.5 cm×30.5 cm container (rigid plastic frame and a sleeved entry on one side and a sliding trap door on the bottom). The container was supported by four (4 cm high) legs.
Membrane feeder. Five wells (3 cm in diameter x 8 mm in depth) in line on a hollow plastic block (6 cm wide x 22 cm long x 3 cm deep). The plastic block fit into the bottom of the exposure container. Hoses mounted on either end of the membrane feeder carried warm water that was pumped from a water bath. The sliding plastic trap door in the bottom of the exposure container covered and uncovered the wells in the membrane feeder, allowing mosquitoes to access the blood-filled wells that were covered with treated collagen membranes.
Study set-up. The membrane feeder was connected to a heated water bath, and warm water passed through the feeder via a circulating pump so that the wells were warmed to 96-100° F. Seventy-two (72) mg of ATP (disodium salt) were added to 26 ml of bovine blood. Sodium citrate was also added to the blood during collection to prevent clotting. The blood was poured into the wells until it completely filled each well (meniscus slightly above the level of the well).
Circular pieces (3 cm in diameter) of collagen membrane were placed over each of the wells. […]
Treatment and exposure to mosquitoes. […] The number of mosquitoes probing the membrane covering each well was recorded every two minutes for twenty minutes. […]

In order of rising “Test result, percentage relative to 0.3 wt % DEET in the same test” value:
1. CC1CCC(C(C)(C)O)C(O)C1 (stereo not drawn) [PMD, para-menthane-3,8-diol, reference compound]  84.6%
2. CCN(CC)C(=O)c1cccc(C)c1 [DEET, N,N-diethyl-m-toluamide, reference compound]  100.0%
3. CCNC(=O)C1CC(C)CCC1C(C)C (stereo not drawn) [WS3, N-ethyl-p-menthane-3-carboxamide]  130.0%
